Data from patent publication US11700853B2, “Plant health compositions comprising a water-soluble pesticide and a water-insoluble agrochemical” (priority 2010, dated 2023).
Values after ≈ are worked out from the molar mass of the structure shown.

Tests used:
[1] = at 20° C.; cited from earlier work
[2] = Dissolution/melting temperature in surfactants by differential scanning calorimetry (DSC); details: for effect of surfactants on dissolution/melting temperature: cationic, nonionic and anionic surfactants tested, compared to absence of a surfactant
[3] = Dissolution in surfactants at 20% w/v on heating in a water bath, then cooling to room temperature; details: for Dissolution temp.: temperature at which the mixture cleared
[4] = 20% w/v in AGM-550, cooled to 20-25° C. after 45 ° C.
[5] = 20% w/v in Ethomeen T/15, cooled to 20-25° C. after 50 ° C.
[6] = 20% w/v in Ethomeen T/15 at 45 ° C.
[7] = 20% w/v in Ethomeen T/15 at 50 ° C.
[8] = 20% w/v in coco quaternary amine 2 EO (Ethoquad C/12)
[9] = 20% w/v in cocoamine 2EO (Ethomeen C/12)

Molecule: C=CCOC(Cn1ccnc1)c1ccc(Cl)cc1Cl (stereo not drawn) [imazalil]
- water solubility (Solub.) [1]: 0.1 µg/mL (≈ 0.336 µM)

Molecule: CCOC(=O)NCCOc1ccc(Oc2ccccc2)cc1 [fenoxycarb]
- water solubility (Solub.) [1]: 7.9 µg/mL (≈ 26.2 µM)

Molecule: C=CCNC(=O)c1c([Si](C)(C)C)sc(C)c1C [silithiofam]
- water solubility (Solub.) [1]: 39.9 µg/mL (≈ 149 µM)

Molecule: CC(Oc1ccc(Cl)cc1Cl)C(=O)NC(C)(C#N)C(C)C (stereo not drawn) [fenoxanil]
- water solubility (Solub.) [1]: 30.7 µg/mL (≈ 93.2 µM)

Molecule: CC(C)(C)C(O)(CCc1ccc(Cl)cc1)Cn1cncn1 (stereo not drawn) [tebuconazole]
- melting/dissolution point ([2]; 40 wt % in ethoxylated cocoamine (2EO) surfactant, FIG. 14): 71 °C
- melting/dissolution point ([2]; 65 wt % in ethoxylated cocoamine (2EO) surfactant, FIG. 14): 91 °C
- dissolution/melting point, rank among surfactants tested ([2]; amidopropylamine surfactant): lowest
- effect of surfactants on dissolution/melting temperature [2]: reduced
- Observation at room temp. [3, 4]: Dissolved
- Dissolution temp. ([3]; 20% w/v in AGM-550): 45 °C
- Observation ([3]; 20% w/v in AGM-550 at 45 ° C.): Dissolved
- Observation at room temp. ([3]; 20% w/v in Armeen APA 9, cooled to 20-25° C. after 40 ° C.): Dissolved
- Dissolution temp. ([3]; 20% w/v in Armeen APA 9): 40 °C
- Observation ([3]; 20% w/v in Armeen APA 9 at 40 ° C.): Dissolved
- Observation at room temp. ([3]; 20% w/v in Ethomeen C/12, cooled to 20-25° C. after 45 ° C.): Dissolved
- Observation ([3]; 20% w/v in Ethomeen C/12 at 45 ° C.): Dissolved
- Observation at room temp. [3, 5]: Dissolved
- Dissolution temp. ([3]; 20% w/v in Ethomeen T/15): 50 °C
- Observation [3, 6]: Not Dissolved
- Observation [3, 7]: Dissolved
- Observation at room temp. ([3]; 20% w/v in Ethoquad C/12, cooled to 20-25° C. after 45 ° C.): Dissolved
- Observation ([3]; 20% w/v in Ethoquad C/12 at 45 ° C.): Dissolved
- Observation at room temp. ([3]; 20% w/v in Surfonic L24-9, cooled to 20-25° C. after 50 ° C.): Dissolved
- Dissolution temp. ([3]; 20% w/v in Surfonic L24-9): 50 °C
- Observation ([3]; 20% w/v in Surfonic L24-9 at 45 ° C.): Not Dissolved
- Observation ([3]; 20% w/v in Surfonic L24-9 at 50 ° C.): Dissolved
- Observation ([3]; 20% w/v in alkylamine oxide at 45 ° C.): Dissolved
- Observation at room temp. ([3]; 20% w/v in alkylamine oxide, cooled to 20-25° C. after 45 ° C.): Dissolved
- Dissolution temp. ([3]; 20% w/v in alkylamine oxide): 45 °C
- Dissolution temp. [3, 8]: 45 °C
- Dissolution temp. [3, 9]: 45 °C

Molecule: CCOP(=S)(OCC)Oc1ccc(=O)n(-c2ccccc2)n1 [pyridaphenthion]
- water solubility (Solub.) [1]: 55.2 µg/mL (≈ 162 µM)

Molecule: C#CCOc1ccc(CCNC(=O)C(OCC#C)c2ccc(Cl)cc2)cc1OC (stereo not drawn) [mandipropamid]
- water solubility (Solub.) [1]: 4.2 µg/mL (≈ 10.2 µM)

Molecule: CCOCOc1ccc(C(=O)Nc2cccc(Cl)c2Cl)cc1 [etobenzanid]
- water solubility (Solub.) [1]: 0.9 µg/mL (≈ 2.65 µM)

Molecule: CCOC(=O)[C@@H](C)Oc1ccc(Oc2cnc3cc(Cl)ccc3n2)cc1 [quizalofop-P-ethyl]
- melting/dissolution point ([2]; 40 wt % in C6-9 amidopropyl dimethylamine surfactant (ARMEEN APA 9), FIG. 16): 63 °C
- melting/dissolution point ([2]; 65 wt % in C6-9 amidopropyl dimethylamine surfactant (ARMEEN APA 9), FIG. 16): 69 °C
- effect of surfactants on dissolution/melting temperature [2]: reduced
- Observation at room temp. [3, 4]: Dissolved
- Dissolution temp. ([3]; 20% w/v in AGM-550): 45 °C
- Observation ([3]; 20% w/v in AGM-550 at 45 ° C.): Dissolved
- Observation at room temp. ([3]; 20% w/v in Armeen APA 9, cooled to 20-25° C. after 50 ° C.): Dissolved
- Dissolution temp. ([3]; 20% w/v in Armeen APA 9): 50 °C
- Observation ([3]; 20% w/v in Armeen APA 9 at 45 ° C.): Not Dissolved
- Observation ([3]; 20% w/v in Armeen APA 9 at 50 ° C.): Dissolved
- Observation at room temp. ([3]; 20% w/v in Ethomeen C/12, cooled to 20-25° C. after 55 ° C.): Dissolved
- Observation at room temp. ([3]; 20% w/v in Ethomeen C/12, cooled to 20-25° C. after 65 ° C.): Dissolved
- Observation ([3]; 20% w/v in Ethomeen C/12 at 50 ° C.): Not Dissolved
- Observation ([3]; 20% w/v in Ethomeen C/12 at 55 ° C.): Dissolved
- Observation ([3]; 20% w/v in Ethomeen C/12 at 65 ° C.): Dissolved
- Observation at room temp. [3, 5]: Dissolved
- Dissolution temp. ([3]; 20% w/v in Ethomeen T/15): 50 °C
- Observation [3, 6]: Not Dissolved
- Observation [3, 7]: Dissolved
- Observation at room temp. ([3]; 20% w/v in Ethoquad C/12, cooled to 20-25° C. after 65 ° C.): Dissolved
- Observation ([3]; 20% w/v in Ethoquad C/12 at 55 ° C.): Not Dissolved
- Observation ([3]; 20% w/v in Ethoquad C/12 at 65 ° C.): Dissolved
- Observation ([3]; 20% w/v in alkylamine oxide at 60 ° C.): Dissolved
- Observation at room temp. ([3]; 20% w/v in alkylamine oxide, cooled to 20-25° C. after 60 ° C.): Dissolved
- Dissolution temp. ([3]; 20% w/v in alkylamine oxide): 60 °C
- Dissolution temp. [3, 8]: 65 °C
- Dissolution temp. [3, 9]: 55 °C

Molecule: CCOC(=O)C1=NN(c2ccc(Cl)cc2Cl)C(C)(C(=O)OCC)C1 (stereo not drawn) [mefenpyr-diethyl]
- water solubility (Solub.) [1]: 20 µg/mL (≈ 53.6 µM)

Molecule: CO/C=C(/C(=O)OC)c1ccccc1COc1cccc(C(F)(F)F)n1 [picoxystrobin]
- water solubility (Solub.) [1]: 3.1 µg/mL (≈ 8.44 µM)

Molecule: CCOC(=O)C(C)Oc1ccc(Oc2ncc(C(F)(F)F)cc2Cl)cc1 (stereo not drawn) [haloxyfop-ethyl]
- water solubility (Solub.) [1]: 0.6 µg/mL (≈ 1.54 µM)

Molecule: butafenamid
- water solubility (Solub.) [1]: 3.3 µg/mL

Molecule: COP(=O)(OC)O/C(=C\Cl)c1ccc(Cl)cc1Cl [dimethylvinphos]
- water solubility (Solub.) [1]: 0.13 µg/mL (≈ 0.392 µM)

Molecule: COP(=S)(OC)Oc1c(Cl)cc(C)cc1Cl [tolclofos-methyl]
- water solubility (Solub.) [1]: 1.1 µg/mL (≈ 3.65 µM)

Molecule: CC(=O)O.CC1CN(C2CCCCCCCCCCC2)CC(C)O1 (stereo not drawn) [dedemorph acetate]
- water solubility (Solub.) [1]: 736 µg/mL

Molecule: CCC(C)c1cc([N+](=O)[O-])cc([N+](=O)[O-])c1OC(=O)OC(C)C (stereo not drawn) [dinobuton]
- water solubility (Solub.) [1]: 0.1 µg/mL (≈ 0.306 µM)

Molecule: CCC(Oc1ccc(F)c(C(F)(F)F)c1)C(=O)NCc1ccccc1 (stereo not drawn) [beflubutamid]
- water solubility (Solub.) [1]: 3.3 µg/mL (≈ 9.29 µM)

Molecule: CC1CN(C2CCCCCCCCCCC2)CC(C)O1 (stereo not drawn) [dodemorph]
- water solubility (Solub.) [1]: <100 µg/mL

Molecule: anilofos
- water solubility (Solub.) [1]: 13.6 µg/mL

Molecule: CCOC(=O)[C@@H](C)Oc1ccc(Oc2nc3ccc(Cl)cc3o2)cc1 [fenoxaprop-P-ethyl]
- water solubility (Solub.) [1]: 0.7 µg/mL (≈ 1.93 µM)

Molecule: CCOC(=O)C(C)Oc1ccc(Oc2nc3ccc(Cl)cc3o2)cc1 (stereo not drawn) [fenoxaprop-ethyl]
- water solubility (Solub.) [1]: 0.9 µg/mL (≈ 2.49 µM)

Molecule: Cc1ccc(N(SC(F)(Cl)Cl)S(=O)(=O)N(C)C)cc1 [tolyfluanid]
- water solubility (Solub.) [1]: 0.9 µg/mL (≈ 2.59 µM)

Molecule: CCCCCOC(=O)COc1cc(N2C(=O)C3=C(CCCC3)C2=O)c(F)cc1Cl [flumiclorac-pentyl]
- water solubility (Solub.) [1]: 0.2 µg/mL (≈ 0.472 µM)

Molecule: CC(C)(C)C(=O)C(Oc1ccc(Cl)cc1)n1cncn1 (stereo not drawn) [triadimefon]
- water solubility (Solub.) [1]: 64 µg/mL (≈ 218 µM)

Molecule: beta-cypermemethrin
- water solubility (Solub.) [1]: 51.5 µg/mL
